Laboratory results: PMC8740163, “Voltage-Gated Sodium Channel Modulation by a New Spider Toxin Ssp1a Isolated From an Australian Theraphosid” (Frontiers in Pharmacology, 2021)

What was measured:
[1] = target: hNaV1.7 (Homo sapiens, UniProt Q15858); type: cell-based
[2] = tested on: hNaV1.1, 1.2, 1.6, 1.7, 1.3; conditions: ref Gonçalves et al., 2018, cited from earlier work

hNaV1.7, sequence (Q07699 19-218): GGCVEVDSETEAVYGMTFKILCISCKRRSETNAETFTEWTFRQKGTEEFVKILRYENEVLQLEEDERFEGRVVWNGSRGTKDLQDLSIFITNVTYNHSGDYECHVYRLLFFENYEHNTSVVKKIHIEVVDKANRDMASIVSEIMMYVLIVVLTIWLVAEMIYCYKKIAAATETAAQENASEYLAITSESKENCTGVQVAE
hNaV1.7, sequence (Q15858 whole entry): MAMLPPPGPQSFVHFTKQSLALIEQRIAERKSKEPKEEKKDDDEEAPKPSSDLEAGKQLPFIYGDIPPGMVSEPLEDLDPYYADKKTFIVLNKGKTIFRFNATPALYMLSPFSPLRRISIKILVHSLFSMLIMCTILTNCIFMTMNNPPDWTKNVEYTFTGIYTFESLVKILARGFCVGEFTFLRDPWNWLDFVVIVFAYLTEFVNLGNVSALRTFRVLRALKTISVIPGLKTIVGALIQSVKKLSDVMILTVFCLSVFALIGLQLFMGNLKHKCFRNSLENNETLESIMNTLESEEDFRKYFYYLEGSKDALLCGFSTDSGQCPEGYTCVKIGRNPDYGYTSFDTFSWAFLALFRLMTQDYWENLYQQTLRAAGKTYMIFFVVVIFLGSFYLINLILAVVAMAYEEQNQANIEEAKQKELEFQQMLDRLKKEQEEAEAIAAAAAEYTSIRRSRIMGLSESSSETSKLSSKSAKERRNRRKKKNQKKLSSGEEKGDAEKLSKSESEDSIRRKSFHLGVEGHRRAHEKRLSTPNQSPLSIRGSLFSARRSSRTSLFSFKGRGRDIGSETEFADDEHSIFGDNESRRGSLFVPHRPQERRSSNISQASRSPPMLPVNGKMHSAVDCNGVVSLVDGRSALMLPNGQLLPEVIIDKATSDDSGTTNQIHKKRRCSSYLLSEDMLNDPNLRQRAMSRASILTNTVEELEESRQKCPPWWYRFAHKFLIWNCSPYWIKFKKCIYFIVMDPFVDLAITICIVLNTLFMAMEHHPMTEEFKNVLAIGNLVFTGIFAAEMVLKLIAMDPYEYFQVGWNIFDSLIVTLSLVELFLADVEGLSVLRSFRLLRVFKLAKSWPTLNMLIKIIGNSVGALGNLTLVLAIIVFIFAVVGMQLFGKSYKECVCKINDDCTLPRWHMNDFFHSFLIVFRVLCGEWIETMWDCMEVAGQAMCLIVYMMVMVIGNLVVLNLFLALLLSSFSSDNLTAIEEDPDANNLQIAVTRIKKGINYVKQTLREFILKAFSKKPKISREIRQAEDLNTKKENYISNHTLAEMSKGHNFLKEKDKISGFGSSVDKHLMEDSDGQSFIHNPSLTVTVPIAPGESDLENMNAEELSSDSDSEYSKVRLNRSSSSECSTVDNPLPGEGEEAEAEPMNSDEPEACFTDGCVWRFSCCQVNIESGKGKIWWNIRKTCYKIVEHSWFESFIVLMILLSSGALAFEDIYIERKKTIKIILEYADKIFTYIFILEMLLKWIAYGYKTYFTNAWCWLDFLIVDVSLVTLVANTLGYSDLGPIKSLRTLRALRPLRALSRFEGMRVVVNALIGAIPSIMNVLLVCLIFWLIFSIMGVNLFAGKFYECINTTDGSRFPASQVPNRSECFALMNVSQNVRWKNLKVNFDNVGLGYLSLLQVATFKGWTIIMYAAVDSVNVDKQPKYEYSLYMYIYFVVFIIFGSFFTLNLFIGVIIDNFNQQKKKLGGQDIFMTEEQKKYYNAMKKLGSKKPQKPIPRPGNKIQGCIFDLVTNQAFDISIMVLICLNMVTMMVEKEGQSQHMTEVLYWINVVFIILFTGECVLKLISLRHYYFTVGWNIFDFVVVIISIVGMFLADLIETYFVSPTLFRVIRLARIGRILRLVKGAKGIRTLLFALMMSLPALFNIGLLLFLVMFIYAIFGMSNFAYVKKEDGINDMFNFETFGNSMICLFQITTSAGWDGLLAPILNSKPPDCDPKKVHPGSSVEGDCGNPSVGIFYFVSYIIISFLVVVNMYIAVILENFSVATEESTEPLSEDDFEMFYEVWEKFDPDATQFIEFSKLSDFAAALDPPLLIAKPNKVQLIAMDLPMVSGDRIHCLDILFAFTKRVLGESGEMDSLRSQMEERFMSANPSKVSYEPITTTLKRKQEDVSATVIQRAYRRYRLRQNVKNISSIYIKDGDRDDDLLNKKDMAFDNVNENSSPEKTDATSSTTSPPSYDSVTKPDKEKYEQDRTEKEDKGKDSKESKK

| Molecule | inhibition of veratridine + OD1 activated responses [1] | IC50 ([2]; range over hNaV1.1, 1.2, 1.6, 1.7, 1.3, read-out: IC50 at five hNaV subtypes) [nM] | rank order of potency [2] |
| --- | --- | --- | --- |
| NC1=N[C@H](O)[C@H]2[C@H]3O[C@]4(O)O[C@@H]([C@@H](O)[C@@]2(N1)[C@@H]4O)[C@]3(O)CO [Tetrodotoxin (TTX), Tetrodotoxin] | fully inhibited |  |  |
| HwTx-IV: NaSpTx1 family spider toxin, 40% sequence identity with Ssp1a |  | 41 to 190 | hNaV1.1 > 1.2 > 1.6 > 1.7 > 1.3 |
